The subject of data set [1] is human pancreatic cell line MiaPaCa-2. As to the kind of experiment: Tumor growth of MiaPaCa-2 cells injected into SCID-beige mice given L-NAME in drinking water. It counts as in vivo. To be noted: L-NAME 0.5 g/liter in drinking water, vs untreated drinking water. An excerpt: Eight SCID-beige immunocompromised mice. (The Jackson Laboratory, Bar Harbor, Me.). were each injected simultaneously with one million cells of the human pancreatic cell line MiaPaCa-2 (available from the ATCC, identified as ATCC CRL-1420). Then 4 mice were provided with drinking water supplemented with L-NAME at a concentration of 0.5 g/liter and 4 were provided with drinking water that was not supplemented. Measurements were taken at the site of the injection to calculate tumor volume. Results are shown in FIG. 1 which is a graph of Tumor Volume vs. Time in days after injection where the diamonds denote measurements on untreated mice and the triangles denote measurements on L-NAME fed mice.

In data set [2] the test system is human eNOS. As to the kind of experiment: Knockdown of eNOS expression, immunoblot. It counts as cell-based. An excerpt:
The siRNA of SEQ ID NO:1 is produced as follows: Complementary oligonucletides obtained from Integrated DNA Technologies (Coralville, USA) and annealed together were cloned into the Hind III and Bgl II sites of pSUPER-RETRO (OligoEngine, Seattle, Wash.). The sense strand of this insert is identified in the Sequence Listing as SEQ ID NO: 4. Transcription of this sequence by RNA polymerase produces an shRNA having the Sequence Listing as SEQ ID NO: 5. This is processed using Dicer complex to remove the hairpin to give the double stranded RNA sequence of SEQ ID NO: 1 which specifically knocks down the expression of human eNOS Exemplary dosage is 100-1600 micrograms based on a clinical trial of the siRNA compound AGN211745.
A test for determining that eNOS expression is reduced is by immunoblot by using commercially available phosphor-S1177 eNOS antibody.
(In western blotting, separated proteins are transferred to a membrane and probed.)

The subject of data set [3] is pancreatic cancer cell line. The experiment in a line: Tumor growth in SCID-beige mice of pancreatic cancer cell lines stably infected with siRNA plasmid. It is filed as in vivo, human. The following applies: cells expressing the siRNA. The method, then: Methods for creating stably infected cell lines are set below:
Day 1 • Morning—split a 10 cm plate of confluent 293T/17 cells (ATCC CRL-11268) 1:6 in αMEM supplemented with 10% Fetal Calf Serum (FCS) (no antibiotics) into a 10 cm plate so as to be 40-50% confluent at time of transfection.
Day 2 • Morning—mix in tissue culture hood in microcentrifuge tube: 12 μg pCL-10A1, 3 μg pSUPER-RETRO-PURO plasmid (OligoEngine, Seattle, Wash.) engineered to encode eNOS, RNA, NRas siRNA or HRas siRNA, and serum free media to 200 μl total volume. Tap tube side gently to mix and incubate at room temperature 15-45 minutes. Add dropwise to 293T/17 cells with micropipette and incubate overnight at 37° C.
Day 3 • Morning—repeat transfection protocol from day 2. Once the transfection mix is added to the cells, it must be incubated for at least 8 hours. Evening—remove media and replace with 6 ml of cell specific media of cells to be infected.
Day 4 • Morning—split a confluent 10 cm plate of pancreatic cancer cell line to be infected in cell type specific media so that they will reach 25-35% confluency the following morning.
Day 5 • Morning—aspirate media in a 10 ml syringe, attach 0.45 μm acrodisc filter to the bottom of the syringe. Filter the media into a 15 ml conical tube. […]
Method of testing pancreatic cancer cell line for tumor growth is set forth below: • 1. Expand pancreatic cancer cells stably infected with pSUPER-RETRO-PURO plasmid (OligoEngine) engineered to encode eNOS siRNA, NRas siRNA, or HRas siRNA to a total count of at least 1×10^7 cells/mouse, typically 4-8 15 cm tissue culture dishes at full confluency (number of dishes determined by cell size). • 2. […] Weigh each mouse for baseline reading and track tumor progression over the weeks to months by measuring large and small diameters and extrapolating tumor volume utilizing the equation: Tumor Volume=(small diameter)^2[…](large diameter/2).

Data set [4] has as its system human NRas. As to the kind of experiment: Knockdown of NRas expression, immunoblot. It is filed as cell-based. An excerpt:
(§1) The siRNA of SEQ ID NO: 2 is produced as follows: Complementary oligonucleotides obtained from Integrated DNA Technologies (Coralville, USA) and annealed together were cloned into the Hind III and Bgl II sites of pSUPER-RETRO (OligoEngine, Seattle, Wash.). The sense strand of this insert is identified in the Sequence Listing as SEQ ID NO: 8. Transcription of this sequence by RNA polymerase produces an shRNA having the sequence identified in the Sequense Listing as SEQ ID NO: 9. This is processed using Dicer complex to remove the hairpin to give the double stranded RNA sequence of SEQ ID NO: 2 which specifically knocks down the expression of human NRas.
A test for determining that NRas expression is reduced is by immunoblot by using commercially available NRas antibody.

Data set [5] relates to human HRas. As to the kind of experiment: Knockdown of HRas expression, immunoblot. It is filed as cell-based.
From the text: as §1, with “3” for “2”, “6.” for “8.”, “7.” for “9.”, “HRas.” for “NRas.”
A test for determining that HRas expression is reduced is by immunoblot by using commercially available HRas antibody.

The values that follow come from patent US8927598B2, “Treating oncogenic Ras driven cancers” (Duke University, priority 2008, dated 2015).

For `COC(=O)[C@@H](N)CCCNC(=N)N[N+](=O)[O-]` [L-NAME, N^G-nitro-L-arginine methyl ester], the “Tumor growth (tumor volume vs. time in days after injection)” value in data set [1] is given as “Tumors grew more slowly”. In addition, the “Reduction in tumor size at termination of the experiment” value in data set [1] (p<0.01) is recorded as about 3 fold.

As for “SEQ ID NO: 1: novel siRNA generated by the applicant that knocks down the expression of human eNOS (AAGAGUUAUAAGAUCCGCUUC; chemistry not given here; listed as Homo sapiens)”, the “Knockdown of expression of human eNOS” value in data set [2] was “efficiently knocks down”. Moreover, the “Tumor initiation and growth of cancer cell lines in mice” value (“Tumor initiation and growth” below) in data set [3] was “blocks tumor initiation and growth”.

Take “SEQ ID NO: 2: novel siRNA generated by the applicant that knocks down the expression of human NRas (CAAGAAGAGUACAGUGCCAUG; listed as RNA, chemistry not given here; listed as Homo sapiens)”: the “Tumor initiation and growth” value in data set [3] is “inhibits tumor growth”. The “Knockdown of expression of NRas proteins” value in data set [4] is “efficiently knocks down”.

“SEQ ID NO: 3: published siRNA (Yang, G., et al., Oncogene 22, 5694-5701 (2003)) that knocks down the expression of human HRas (GGCAAGAGUGCGCUGACCAUC; listed as RNA, chemistry not given here; listed as Homo sapiens)”: in data set [5], the “Knockdown of expression of HRas proteins” value was “efficiently knocks down”. Moreover, the “Tumor initiation and growth” value in data set [3] is recorded as “inhibits tumor growth”.
